This is an account of results in EP0819380A1, “Bacteriocidal, antibacterial and bacteriostatic composition” (priority 1996, dated 1998).

Like-named read-outs stand apart in the source and are kept apart here. Some results are limits rather than exact numbers.

In series [1] the test system is herpes simplex I (HSV-1, strain VRIII). In words: Inactivation of herpes simplex I (viral infectivity titer, CPE in Vero cells). The series is classed as cell-based. Conditions: for Viral infectivity titer when contacted for an hour (TCID50/25 µl): room temperature, composition 0.5% butyl p-oxybenzoate.
Series [2] has as its system influenza virus type B (FluV-B, strain B/Lee/40). The series is classed as cell-based.
Series [3] has as its system mice. The following applies: p.o.; cited from earlier work.
The test system of series [4] is Type HIV-1 (LAI strain). In words: Inactivation of HIV (infectivity titer in MT-4 cells). The class given is cell-based. Conditions: summary of Table 6, concentration-dependent.
Setting [5] is: Composition : Viral solution 1 : 4, 1 hour.
[6] abbreviates: Composition : Viral solution 1 : 9, 1 hour.
[7] abbreviates: Composition : Viral solution 1 : 99, 1 hour.
[8] abbreviates: mixing ratio 1:9, Contact Time 0 minute.
[9] abbreviates: mixing ratio 1:9, Contact Time 5 minutes.
Setting [10] is: mixing ratio 1:9, Contact Time 15 minutes.
[11] abbreviates: mixing ratio 1:9, Contact Time 30 minutes.
Setting [12] is: mixing ratio 1:9, Contact Time 1 hour.

As to `CCCCOC(=O)c1ccc(O)cc1` [butyl ester, butyl p-oxybenzoate], the “Viral infectivity titer when contacted for an hour (TCID50/25 µl)” value was ≤3.2 x 10^1 TCID50/25 µl in series [1] (setting [5]); ≤3.2 x 10^0 TCID50/25 µl in series [1] (setting [6]); 1.8 x 10^4 TCID50/25 µl in series [1] (setting [7]); 3.2 x 10^3 TCID50/25 µl in series [2] (FluV-B, Composition : Viral solution 1 : 99, 1 hour, room temperature, composition 0.5% butyl p-oxybenzoate). The “Viral infectivity titer for various contact time periods (TCID50/25 µl)” value in series [1] (setting [8]) was 5.6 x 10^3 TCID50/25 µl; in series [1] (setting [9]), 3.2 x 10^0 TCID50/25 µl; in series [1] (setting [10]) it was 3.2 x 10^0 TCID50/25 µl; in series [1] (setting [11]), 3.2 x 10^0 TCID50/25 µl; in series [1] (setting [12]), 3.2 x 10^0 TCID50/25 µl. Also, in series [3], the “Acute toxicity (LD-50)” value was 17000 mg/kg.
`CCCOC(=O)c1ccc(O)cc1` [propyl ester, Propyl p-oxybenzoate]: the “Acute toxicity (LD-50)” value in series [3] is given as 8000 mg/kg.
For the molecule `CCO` [70% Ethanol, Ethanol, reference compound], the “Viral infectivity titer when contacted for an hour (TCID50/25 µl)” value in series [1] (setting [5]) was 3.2 x 10^4 TCID50/25 µl; in series [1] (setting [6]), 5.6 x 10^4 TCID50/25 µl; in series [1] (setting [7]) it was 1.0 x 10^5 TCID50/25 µl; in series [2] (1 h), 3.2 x 10^3 TCID50/25 µl. Further, the “Viral infectivity titer for various contact time periods (TCID50/25 µl)” value in series [1] (setting [8]) is 3.2 x 10^4 TCID50/25 µl; in series [1] (setting [9]), 3.2 x 10^4 TCID50/25 µl; in series [1] (setting [10]) it was 1.8 x 10^4 TCID50/25 µl; in series [1] (setting [11]) it was 1.8 x 10^3 TCID50/25 µl; in series [1] (setting [12]), 5.6 x 10^4 TCID50/25 µl; in series [2] (0.5 h), 3.2 x 10^3 TCID50/25 µl. The “Viral infectivity titer for various contact time periods (TCID50/25 µl)” value in series [2] (1 h) is given as 5.6 x 10^3 TCID50/25 µl.
`CCOC(=O)c1ccc(O)cc1` [ethyl ester, ethyl p-oxybenzoate]: the “inactivation effect against HIV” value in series [4] is given as “potent inactivation effect”. For the same molecule, the “Acute toxicity (LD-50)” value in series [3] is on record as 5000 mg/kg.
